# Key:
# Assay type in all cases: cell-based
# ACHN = assay: NCI 60 antitumor screening (single dose / five doses); conditions: Homo sapiens; for inhibition at 10 µM: ACHN (renal cancer), single dose 10 μM, read-out: Growth inhibition percentage (GI %)
# SF-539 = assay: as above; conditions: Homo sapiens; for inhibition at 10 µM: SF-539 (CNS cancer), single dose 10 μM, read-out: Growth inhibition percentage (GI %)
# K-562 = assay: as above; conditions: Homo sapiens, K562; for inhibition at 10 µM: K-562 (leukaemia), single dose 10 μM, read-out: Growth inhibition percentage (GI %)
# HOP-62 = assay: NCI 60 antitumor screening (single dose); conditions: Homo sapiens; HOP-62 (non-small cell lung cancer), single dose 10 μM; read-out: Growth inhibition percentage (GI %)
# Protocol: (§1) Initially, the anticancer effects of target compounds have been assessed at a single (10 μM) dose. The obtained data have been reported as mean-graph of the percent growth (G%) of the treated cancer cells. Percentage growth inhibition (GI%) is calculated (100 − G%) and pronounced in Table 1. […] Target compounds in series (III) with manipulated linkers disclosed lower potency. Superiorly, eight s-triazine derivatives from the three series (6a, 6c, 6d, 7a, 7g, 7i, 7l, and 8b) have shown potent broad-spectrum anticancer activity against most the examined cell lines, whereas most of the remaining triazine derivatives, 20 derivatives, have exerted selective anti-proliferative actions towards certain cancer cell lines (Supplementary).
# (§2) The antitumor screening was performed for 60 human cancer cell lines under the protocol of NCI (www.dtp.nci.nih.gov), the Drug Evaluation Branch, Bethesda, MD. All submitted compounds were nominated based on the degree of structural diversity and computer modelling techniques for evaluation of their anticancer activity. The screening process for antineoplastic activity passes through two successive levels, starting with the assessment of target compounds at a single dose of 10 μM against 60 cancer cell lines on nine types of human tumours. These experiments were done on a triplicate following. The output from the single‐dose screening was covered as a mean graph, and then, analysed by the COMPARE program. Finally, the compounds which disclosed subpanel cancer cell growth (G %) equal to or less than 10% in at least eight cancer cell lines get to pass the assessment against the 60 cell lines at five doses (0.01–100 μM). By using GraphPad Prism version 9.0 (Graphpad Software Inc., La Jolla, CA), GI50, TGI, as well as LC50 dose‐response parameters were computed and presented for each compound (Supplementary information)[55–57].
# HS 578T = assay: NCI 60 antitumor screening (single dose); conditions: Homo sapiens; HS 578T (breast cancer), single dose 10 μM; read-out: Growth inhibition percentage (GI %)
# Protocol: as §1, §2
# TK-10 = assay: NCI 60 antitumor screening (single dose); conditions: Homo sapiens; TK-10 (renal cancer), single dose 10 μM; read-out: Growth inhibition percentage (GI %)
# Protocol: as §1, §2
# CAKI-1 = assay: NCI 60 antitumor screening (single dose); conditions: Homo sapiens; CAKI-1 (renal cancer), single dose 10 μM; read-out: Growth inhibition percentage (GI %)
# Protocol: as §1, §2
# NCI-H522 = assay: NCI 60 antitumor screening (single dose); conditions: Homo sapiens; NCI-H522 (non-small cell lung cancer), single dose 10 μM; read-out: Growth inhibition percentage (GI %)
# Protocol: as §1, §2
# OVCAR-3 = assay: NCI 60 antitumor screening (single dose); conditions: Homo sapiens; OVCAR-3 (ovarian cancer), single dose 10 μM; read-out: Growth inhibition percentage (GI %)
# Protocol: as §1, §2
# HCC-2998 = assay: NCI 60 antitumor screening (single dose); conditions: Homo sapiens; HCC-2998 (colon cancer), single dose 10 μM; read-out: Growth inhibition percentage (GI %)
# Protocol: as §1, §2
# U251 = assay: NCI 60 antitumor screening (single dose); conditions: Homo sapiens, U-251; U251 (CNS cancer), single dose 10 μM; read-out: Growth inhibition percentage (GI %)
# Protocol: as §1, §2
# SF-268 = assay: NCI 60 antitumor screening (single dose); conditions: Homo sapiens; SF-268 (CNS cancer), single dose 10 μM; read-out: Growth inhibition percentage (GI %)
# Protocol: as §1, §2
# NCI-H460 = assay: NCI 60 antitumor screening (single dose); conditions: Homo sapiens; NCI-H460 (non-small cell lung cancer), single dose 10 μM; read-out: Growth inhibition percentage (GI %)
# Protocol: as §1, §2
# OVCAR-5 = assay: NCI 60 antitumor screening (single dose); conditions: Homo sapiens; OVCAR-5 (ovarian cancer), single dose 10 μM; read-out: Growth inhibition percentage (GI %)
# Protocol: as §1, §2
# SNB-19 = assay: NCI 60 antitumor screening (single dose); conditions: Homo sapiens; SNB-19 (CNS cancer), single dose 10 μM; read-out: Growth inhibition percentage (GI %)
# Protocol: as §1, §2
# M14 = assay: NCI 60 antitumor screening (single dose); conditions: Homo sapiens; M14 (melanoma), single dose 10 μM; read-out: Growth inhibition percentage (GI %)
# Protocol: as §1, §2
# MCF7 = assay: NCI 60 antitumor screening (single dose); conditions: Homo sapiens; MCF7 (breast cancer), single dose 10 μM; read-out: Growth inhibition percentage (GI %)
# Protocol: as §1, §2
# NCI-H226 = assay: NCI 60 antitumor screening (single dose); conditions: Homo sapiens; NCI-H226 (non-small cell lung cancer), single dose 10 μM; read-out: Growth inhibition percentage (GI %)
# Protocol: as §1, §2
# PC-3 = assay: NCI 60 antitumor screening (single dose); conditions: Homo sapiens; PC-3 (prostate cancer), single dose 10 μM; read-out: Growth inhibition percentage (GI %)
# Protocol: as §1, §2
# A549/ATCC = assay: NCI 60 antitumor screening (single dose); conditions: Homo sapiens; A549/ATCC (non-small cell lung cancer), single dose 10 μM; read-out: Growth inhibition percentage (GI %)
# Protocol: as §1, §2
# OVCAR-8 = assay: NCI 60 antitumor screening (single dose); conditions: Homo sapiens; OVCAR-8 (ovarian cancer), single dose 10 μM; read-out: Growth inhibition percentage (GI %)
# Protocol: as §1, §2
# KM 12 = assay: NCI 60 antitumor screening (single dose); conditions: Homo sapiens, KM12; KM 12 (colon cancer), single dose 10 μM; read-out: Growth inhibition percentage (GI %)
# Protocol: as §1, §2
# NCI-H322M = assay: NCI 60 antitumor screening (single dose); conditions: Homo sapiens; NCI-H322M (non-small cell lung cancer), single dose 10 μM; read-out: Growth inhibition percentage (GI %)
# Protocol: as §1, §2
# CCRF-CEM = assay: NCI 60 antitumor screening (single dose / five doses); conditions: Homo sapiens; for inhibition at 10 µM: CCRF-CEM (leukaemia), single dose 10 μM, read-out: Growth inhibition percentage (GI %)
# RPMI-8226 = assay: as above; conditions: Homo sapiens; for inhibition at 10 µM: RPMI-8226 (leukaemia), single dose 10 μM, read-out: Growth inhibition percentage (GI %)
# MALME-3M = assay: as above; conditions: Homo sapiens; for inhibition at 10 µM: MALME-3M (melanoma), single dose 10 μM, read-out: Growth inhibition percentage (GI %)
# UACC-257 = assay: as above; conditions: Homo sapiens; for inhibition at 10 µM: UACC-257 (melanoma), single dose 10 μM, read-out: Growth inhibition percentage (GI %)
structure (smiles),measurement,setting,value
"Clc1cccc(/C=N/Nc2nc(N/N=C/c3cccc(Cl)c3)nc(N3CCOCC3)n2)c1 [compound 6d, 2,4-Bis[(E)-2-[(3-chlorophenyl)methylidene]hydrazin-1-yl]-6-(morpholin-4-yl)-1,3,5-triazine]",inhibition at 10 µM,ACHN,74.2%
same,GI50,"ACHN; ACHN, five doses (0.01–100 μM), read-out: GI50",2110 nM
same,inhibition at 10 µM,SF-539,56.4%
same,GI50,"SF-539; SF-539, five doses (0.01–100 μM), read-out: GI50",5390 nM
same,inhibition at 10 µM,K-562,88.2%
same,GI50,"K-562; K-562, five doses (0.01–100 μM), read-out: GI50",690 nM
same,inhibition at 10 µM,HOP-62,-9.83%
same,inhibition at 10 µM,HS 578T,32.5%
same,inhibition at 10 µM,TK-10,-0.21%
same,inhibition at 10 µM,CAKI-1,62.4%
same,inhibition at 10 µM,NCI-H522,86.1%
same,inhibition at 10 µM,OVCAR-3,43.7%
same,inhibition at 10 µM,HCC-2998,41%
same,inhibition at 10 µM,U251,39.6%
same,inhibition at 10 µM,SF-268,34.1%
same,inhibition at 10 µM,NCI-H460,21.8%
same,inhibition at 10 µM,OVCAR-5,4.53%
same,inhibition at 10 µM,SNB-19,12.1%
same,inhibition at 10 µM,M14,64.8%
same,inhibition at 10 µM,MCF7,57%
same,inhibition at 10 µM,NCI-H226,39.6%
same,inhibition at 10 µM,PC-3,58.5%
same,inhibition at 10 µM,A549/ATCC,53.4%
same,inhibition at 10 µM,OVCAR-8,50.5%
same,inhibition at 10 µM,KM 12,69.8%
same,inhibition at 10 µM,NCI-H322M,46.2%
same,inhibition at 10 µM,CCRF-CEM,75.2%
same,GI50,"CCRF-CEM; CCRF-CEM, five doses (0.01–100 μM), read-out: GI50",1340 nM
same,inhibition at 10 µM,RPMI-8226,61.2%
same,GI50,"RPMI-8226; RPMI-8226, five doses (0.01–100 μM), read-out: GI50",1900 nM
same,inhibition at 10 µM,MALME-3M,144%
same,GI50,"MALME-3M; MALME-3M, five doses (0.01–100 μM), read-out: GI50",2860 nM
same,inhibition at 10 µM,UACC-257,60.9%
same,GI50,"UACC-257; UACC-257, five doses (0.01–100 μM), read-out: GI50",2470 nM
"Fc1cccc(/C=N/Nc2nc(N/N=C/c3cccc(F)c3)nc(N3CCOCC3)n2)c1 [compound 6e, 2,4-Bis[(E)-2-[(3-Fluorophenyl)methylidene]hydrazin-1-yl]-6-(morpholin-4-yl)-1,3,5-triazine]",inhibition at 10 µM,ACHN,20.9%
same,inhibition at 10 µM,SF-539,12.6%
same,inhibition at 10 µM,K-562,35.3%
same,inhibition at 10 µM,HOP-62,-5.63%
same,inhibition at 10 µM,HS 578T,-0.4%
same,inhibition at 10 µM,TK-10,-28.1%
same,inhibition at 10 µM,CAKI-1,11.3%
same,inhibition at 10 µM,NCI-H522,4.23%
same,inhibition at 10 µM,OVCAR-3,19.3%
same,inhibition at 10 µM,HCC-2998,-2.3%
same,inhibition at 10 µM,U251,23.8%
same,inhibition at 10 µM,SF-268,4.91%
same,inhibition at 10 µM,NCI-H460,5.44%
same,inhibition at 10 µM,OVCAR-5,-3.81%
same,inhibition at 10 µM,SNB-19,1.85%
same,inhibition at 10 µM,M14,100%
same,inhibition at 10 µM,MCF7,19.3%
same,inhibition at 10 µM,NCI-H226,5.56%
same,inhibition at 10 µM,PC-3,24.5%
same,inhibition at 10 µM,A549/ATCC,6.5%
same,inhibition at 10 µM,OVCAR-8,8.56%
same,inhibition at 10 µM,KM 12,0.3%
same,inhibition at 10 µM,NCI-H322M,3.82%
same,inhibition at 10 µM,CCRF-CEM,32.8%
same,inhibition at 10 µM,RPMI-8226,33%
same,inhibition at 10 µM,MALME-3M,-44%
same,inhibition at 10 µM,UACC-257,6.59%
